According to patent US20260191853A1, “METHOD OF TREATING DRUG-INDUCED BRADYARRHYTHMIA” (OSAKA UNIVERSITY, priority 2022, published 2026):

How the values were obtained:
[1] = molecular target: T1, KACh channel (Homo sapiens, UniProt P48544+P48549); assay: KACh channel inhibitory action
T1 sequence (P48549 1-501): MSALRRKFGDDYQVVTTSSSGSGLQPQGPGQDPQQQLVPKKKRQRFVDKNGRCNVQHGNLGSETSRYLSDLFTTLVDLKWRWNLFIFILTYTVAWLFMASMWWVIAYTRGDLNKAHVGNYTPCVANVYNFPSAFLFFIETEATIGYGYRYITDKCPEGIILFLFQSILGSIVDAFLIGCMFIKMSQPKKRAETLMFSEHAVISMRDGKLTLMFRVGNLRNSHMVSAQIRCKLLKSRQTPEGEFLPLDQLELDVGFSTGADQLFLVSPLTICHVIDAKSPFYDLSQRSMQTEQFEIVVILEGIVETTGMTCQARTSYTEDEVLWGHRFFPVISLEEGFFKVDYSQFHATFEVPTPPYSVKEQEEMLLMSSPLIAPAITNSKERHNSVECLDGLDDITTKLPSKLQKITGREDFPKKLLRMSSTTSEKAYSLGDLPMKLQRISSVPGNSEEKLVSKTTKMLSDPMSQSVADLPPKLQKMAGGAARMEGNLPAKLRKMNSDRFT
T1 sequence (P48544 1-419): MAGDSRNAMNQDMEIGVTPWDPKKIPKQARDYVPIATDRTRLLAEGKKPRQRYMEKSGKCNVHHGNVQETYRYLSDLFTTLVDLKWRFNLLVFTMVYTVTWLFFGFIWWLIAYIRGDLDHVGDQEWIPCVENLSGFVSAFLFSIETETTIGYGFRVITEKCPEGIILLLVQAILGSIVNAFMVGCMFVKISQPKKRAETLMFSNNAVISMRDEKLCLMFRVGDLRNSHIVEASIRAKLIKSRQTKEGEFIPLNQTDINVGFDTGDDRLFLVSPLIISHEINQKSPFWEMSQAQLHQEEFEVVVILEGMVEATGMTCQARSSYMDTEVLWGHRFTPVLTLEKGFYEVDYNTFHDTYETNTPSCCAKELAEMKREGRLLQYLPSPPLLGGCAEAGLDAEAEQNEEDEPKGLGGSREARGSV

[2] = test system: beagle dog; assay: Therapeutic effect on propranolol-induced bradycardia in conscious beagle dog; type: in vivo; details: compound (I) dihydrochloride 0.01, 0.1, 1 mg/kg bolus i.v., FIG. 9
Experimental: A peripheral venous path was secured with an 18 G needle in the right forelimb of a beagle dog (body weight: about 10 kg, female, available from Oriental Yeast Co., Ltd.), and then held on an operating table. Heart rate was monitored with an electrocardiographic monitor worn on the animal. A manchette was worn on the left forelimb, and blood pressure was measured with an Omron automatic electronic sphygmomanometer. The left ventricular function was measured by the M-mode method using the echocardiographic left parasternal short-axis two-chamber view. After stabilization of the heart rate, propranolol (Inderal Injection, available from AstraZeneca K.K.) was administered by bolus intravenous injection at a dose of 2 mg/kg, followed by continuous intravenous injection at a dose of 1 mg/minute with a syringe pump. After the elapse of about 30 minutes, the stabilization of the heart rate was determined, and then saline and compound (I) dihydrochloride (0.01 mg/kg, 0.1 mg/kg, 1 mg/kg) were administered by bolus intravenous injection at 10-minute intervals. About 10 minutes after each administration, heart rate, blood pressure, and left ventricular function were measured and evaluated in a stable state. The solvent used was saline (available from Otsuka Pharmaceutical Factory, Inc.).

[3] = test system: genetically modified animal model; assay: Sinus arrest and atrioventricular block in a genetically modified animal model; type: in vivo
[4] = test system: human iPS cell-derived atrial myocytes; assay: Siponimod-induced decrease in beating rate in human iPS cell-derived atrial myocytes (multi-electrode array); type: cell-based; details: 0.1 μM compound (I) added after 0.1 μM siponimod, observed 10 minutes; FIG. 6
Experimental: Cryopreserved human iPS cell-derived atrial myocytes (Human iPSC-derived atrial cardiomyocytes, available from Axol Bioscience) were thawed and seeded at 1,400,000 cells/well on a fibronectin-coated 6-well plate, followed by culturing in an incubator at 37° C. and 5% CO2 for 11 days. During the culture, the entire amount of medium was changed every other day. After the elapse of 11 days, human iPS cell-derived atrial myocytes that started beating were removed from the plate and recovered with TrypLE Select Enzyme (available from ThermoFisher Scientific). The atrial myocytes were seeded at 25,000 cells/2 μL on a fibronectin-coated 6-well MEA Chip (60-6well MEA200/30iR-Ti-tcr, available from Multi Channel Systems) and cultured in an incubator at 37° C. and 5% CO2 for one hour. Thereafter, 400 μL of medium was added and cultured in an incubator at 37° C. and 5% CO2 for 13 days. During the culture, a half amount of the medium was changed every other day. After the elapse of […], the MEA Chip was set in a multi-electrode array system (MEA2100, available from Multi Channel Systems) to thereby obtain extracellular potentials under spontaneous beating. […] Data were analyzed with Labchart System (available from ADInstruments).
In FIG. 6, the measurements are shown as mean±standard error, and (I) denotes compound (I).

KACh channel inhibitory action [1]: has a KACh channel inhibitory action
Structure (SMILES): Cc1cc(CO)nc2cc3c(cc12)OC(C)(C)[C@H](O)[C@H]3NCCc1ccccc1 [Compound (I), (3R,4S)-7-Hydroxymethyl-2,2,9-trimethyl-4-(phenethylamino)-3,4-dihydro-2H-pyrano[2,3-g]quinoline-3-ol]
effect on cardiac contraction inhibitory action of propranolol (left ventricular ejection fraction) [2]: did not affect
propranolol-induced bradycardia (heart rate) ([2]; propranolol 2 mg/kg bolus then 1 mg/minute i.v.): improved bradycardia
efficacy for sinus arrest and atrioventricular block [3]: effective
effect on siponimod-induced decrease in beating rate [4]: increased the beating rate and improved bradyarrhythmia
